Source: patent publication US20220401438A1, “CANCER THERAPEUTIC METHODS” (University Health Network, priority 2021, published 2022)

Experiments:
[1] = system: cancer cell lines not having gene mutations identified by the CRISPR screen analysis; test: In vitro combination of itraconazole with lysosome targeting agents; format: cell-based; conditions: for sensitivity of cell lines to itraconazole when treated with the agent: cell lines without the CRISPR-identified mutations
[2] = Tissue pharmacokinetic analyses (HPLC-MS/MS) of tumour biopsies; format: in vivo, human; conditions: for intratumor concentration (highest): patient HYDRA-005, DL1, on-treatment biopsy; for estimated tissue concentration: patient HYDRA-005 for Itra, assuming 1 μg of tissue corresponds to 1 μl; for detection in tumour biopsies: post-treatment samples, ten patients, none of the pre-treatment samples
Method: Tumour assessment occurred every 8 weeks (+/−1 week) by CT scan. Toxicity was assessed by Common Terminology Criteria (CTCAE) version 4.0. Pre- and on treatment biopsies (on cycle 1, day 8 to 14) were mandatory. Tumour Itra and HCQ concentrations were determined by a HPLC-MS/MS method with itraconazole-D9 and hydroxychloroquine-D4 as the internal standard. The HPLC system was interfaced to a SCIEX TRIPLE QUAD 6500+ mass spectrometer operating in the […] electrospray ionization mode. Data collection, peak integration, and calculation were performed using Analyst® 1.7 software.

[3] = system: TOV1946 stably expressing GFP conjugated TFEB; test: TFEB nuclear translocation; format: cell-based; conditions: CQ 10 μM alone or with Itra 5 μM
Method: FIGS. 11A-B. FIG. 11A) Top, analysis of lysosomal pattern by LAMP1 immunofluorescence and relative quantification in TOV21g treated with Itra 5 μM (15)+/−CQ 5 μM (CQ5). Bottom, Analysis of lysosomal function and relative quantification in TOV21g treated as above. FIG. 11B) Analysis and quantification of TFEB nuclear translocation in TOV1946 stably expressing GFP conjugated TFEB and treated with Itra 5 μM (5) +/−CQ 10 μM (CQ10).
Member of the microphtalmia (MiT) family (TFEB, […], TFE3) are transcription factors activated in starvation or lysosomal dysfunction conditions. Once activated, they translocate to the nucleus where they promote the expression of a network of genes related to lysosomal function and biogenesis^50.

SMILES: CO/C1=C\C(C)=C\[C@@H](C)[C@@H](O)[C@@H](C)C/C(C)=C/C=C/[C@H](OC)[C@@H]([C@@H](C)[C@@H](O)[C@H](C)[C@@]2(O)C[C@@H](O)[C@H](C)[C@@H](C(C)C)O2)OC1=O [Bafilomycin A]
- sensitivity of cell lines to itraconazole when treated with the agent [1]: increased sensitivity to itraconazole
- effect of Itra combined with lysosome targeting agent ([1]; data not shown): combined effect

SMILES: CCN(CCO)CCCC(C)Nc1ccnc2cc(Cl)ccc12 (stereo not shown) [HCQ, hydroxychloroquine]
- intratumor concentration (highest) [2]: 3.5 ng/mg of tissue
- estimated tissue concentration [2]: 5 to 10 µM
- detection in tumour biopsies [2]: detectable in all patients

SMILES: CCC(C)n1ncn(-c2ccc(N3CCN(c4ccc(OCC5COC(Cn6cncn6)(c6ccc(Cl)cc6Cl)O5)cc4)CC3)cc2)c1=O (stereo not shown) [Itra, Itraconazole]
- intratumor concentration (highest) [2]: 0.745 ng/mg of tissue
- estimated tissue concentration [2]: ≤ 1 µM
- detection in tumour biopsies [2]: detectable in all patients

SMILES: CC/C(=C(\c1ccccc1)c1ccc(OCCN(C)C)cc1)c1ccccc1 [tamoxifen]
- sensitivity of cell lines to itraconazole when treated with the agent [1]: increased sensitivity to itraconazole

SMILES: CCN(CC)CCCC(C)Nc1ccnc2cc(Cl)ccc12 (stereo not shown) [CQ, chloroquine]
- TFEB nuclear translocation, cells [3]: about 50%
